Like-named read-outs stand apart in the source and are kept apart here. Non-standard residues stand in square brackets, D forms with d. No end group written: not given here. hArg = N=C(N)NCCCC[C@H](N)C(=O)O
Tests used:
mice = conditions: cited from earlier work
[1] = tested on: total GLP-1 levels in plasma; test: Plasma total GLP-1 levels in diet-induced obese mice after subcutaneous dosing; type: in vivo; conditions: for total GLP-1 levels: 10 mpk
Method: (§1) Animal dosing was as follows. Ad libitum fed male diet-induced obese mice were weighed and dosed subcutaneously about 30 minutes prior to the onset of the dark phase of the light cycle. Animals were either not given food or allowed food during treatment. For NMU studies, plasma was collected by cardiac sticks at two or four hours post dose. For studies with the PEGylated NMU analog, plasma was collected at multiple time points up to 18-hours post dose.
(§2) GLP-1 levels in plasma were measured using the Total GLP-1 kit from Meso Scale Discovery, Gaithersburg, Md. Glucagon levels were measured using the Metabolic Multiplex kit from Meso Scale Discovery, Gaithersburg, Md. PYY levels were measured using the PYY Luminex assay from Millipore, Billerica, Mass. The data shown reports of glucagon, PYY and GLP-1 levels as pg/mL (all values are reported as mean±SEM and data was analyzed using a two-tailed unpaired Student's t test; p values ≦0.05 were reported as significant and are denoted with an asterisk).
(§3) Diet-induced obese mice (DIO) were purchased from Taconic Farms. NMUR1 knockout (Nmur1−/−) mice were generated using standard homologous recombination techniques. U.S. Published Application No. 20080172752 discloses NMUR1 knockout mice. NMUR2 knockout (Nmur2−/−) mice were licensed from Deltagen Inc., San Mateo, Calif. and subsequently transferred to Taconic Farms. Mice were individually housed in Tecniplast cages in a conventional SPF facility. Mice were initially maintained on a regular chow diet and then early in their life were switched to a high fat diet (D12492: 60% kcal from fat; Research Diets, Inc., New Brunswick, N.J.) with ad libitum access to water in a 12-hour light/12-hour dark cycle.

GLP-1 levels in plasma = test: Plasma GLP-1 levels in wild-type, Nmur1-deficient and Nmur2-deficient mice; type: in vivo; conditions: four-hours post dose, absence of food (FIG. 3)
Method: as §2, §3
Plasma was collected from wild-type, Nmur1-deficient and Nmur2-deficient mice four-hours post dose in the absence of food.

PYY levels in plasma = test: Plasma PYY levels in diet-induced obese mice after subcutaneous dosing; type: in vivo
Method: as §1, §2, §3

NMUR1 or NMUR2 receptors = test: Receptor specificity: binding and activation of NMUR1 or NMUR2; type: biochemical; conditions: bind and activate
plasma glucose levels = test: Oral glucose tolerance test, plasma glucose; type: in vivo, mice; conditions: 15 minutes after oral glucose tolerance test (FIG. 6A)
Method: (§4) The Oral Glucose Tolerance Test (OGTT) was performed as follows: Ad libitum fed male diet-induced obese mice were weighed and dosed subcutaneously about 30 minutes prior to the onset of the dark phase of the light cycle. Animals were not given food after dosing. The next day, approximately 18-hours after dosing, basal glucose levels were measured from animals by tail blood. Animals were then administered a glucose dose (1.5 g/kg) by oral gavage and fifteen minutes after dosing with glucose, plasma was collected to evaluate glucagon and glucose levels.
as §3

[2] = tested on: glucagon levels in plasma; test: Oral glucose tolerance test, plasma glucagon; type: in vivo, mice; conditions: 15 minutes after oral glucose tolerance test (FIG. 6B)
Method: as §4, §2
Diet-induced obese mice (DIO) were purchased from Taconic Farms. NMUR1 knockout (Nmur1−/−) mice were generated using standard homologous recombination techniques. U.S. Published Application No. 20080172752 discloses NMUR1 knockout mice. […]

Nmur1 knockout mice = test: Food intake and weight gain in Nmur1 knockout mice after peripheral administration; type: in vivo; conditions: administered peripherally

In the case of “FRVDEEFQSPFASQSRGYFLFRPRN-CONH2 (FRVDEEFQSPFASQSRGYFLFRPRN-NH2) [NMU]”, the food intake (mice; acute administration, centrally or peripherally, mice) is listed as “reduce”, the core body temperature (mice; acute peripheral administration, mice) is listed as “dose-dependently increases” and the anorectic actions (mice; centrally administered, NMUR1-deficient (Nmur1-/-) mice) is listed as “present”. The anorectic actions (mice; centrally administered, NMUR2-deficient (Nmur2-/-) mice) was “absent”, the “food intake, body weight and adiposity” value (mice; chronic administration, centrally or peripherally, mice) was “reduces” and the anorectic actions (mice; peripherally administered, Nmur1-/- mice) was “absent”. For the same substance, the anorectic actions (mice; peripherally administered, Nmur2-/- mice) was “present”, the “total GLP-1 levels” value ([1]; four-hours post dose, obese mice (FIG. 2A)) was “increased” and the “total GLP-1” value ([1]; chronic treatment 3 mpk/day subcutaneously for two weeks (FIG. 2B)) was “significant increase”. For the same substance, the GLP-1 levels (GLP-1 levels in plasma; Nmur1-deficient mice) was “not”, the GLP-1 levels (GLP-1 levels in plasma; Nmur2-deficient mice) was “Increased” and the GLP-1 levels (GLP-1 levels in plasma; wild-type mice) was “Increased”. For the same substance, the “increase of PYY levels” value (PYY levels in plasma; 10 mpk, four-hours post dose, obese mice (FIG. 1A)) was “about two-fold”, the PYY levels (PYY levels in plasma; 10 mpk, four-hours post dose, obese mice (FIG. 1B)) was “increased” and the PYY levels (PYY levels in plasma; 10 mpk, two-hours post dose, obese mice (FIG. 1B)) was “increased”.
In the case of “FRVDEEFQSPFASQSRGFWLFRA-(Harg)-N-CONH2 (FRVDEEFQSPFASQSRGFWLFRA[hArg]N-NH2; N-terminus assumed; SMILES CC(C)C[C@H](NC(=O)[C@H](Cc1c[nH]c2ccccc12)NC(=O)[C@H](Cc1ccccc1)NC(=O)CNC(=O)[C@H](CCCNC(=N)N)NC(=O)[C@H](CO)NC(=O)[C@H](CCC(N)=O)NC(=O)[C@H](CO)NC(=O)[C@H](C)NC(=O)[C@H](Cc1ccccc1)NC(=O)[C@@H]1CCCN1C(=O)[C@H](CO)NC(=O)[C@H](CCC(N)=O)NC(=O)[C@H](Cc1ccccc1)NC(=O)[C@H](CCC(=O)O)NC(=O)[C@H](CCC(=O)O)NC(=O)[C@H](CC(=O)O)NC(=O)[C@@H](NC(=O)[C@H](CCCNC(=N)N)NC(=O)[C@@H](N)Cc1ccccc1)C(C)C)C(=O)N[C@@H](Cc1ccccc1)C(=O)N[C@@H](CCCNC(=N)N)C(=O)N[C@@H](C)C(=O)N[C@@H](CCCCNC(=N)N)C(=O)N[C@@H](CC(N)=O)C(N)=O)”, the “receptor specificity (NMUR1 / NMUR2)” value (NMUR1 or NMUR2 receptors) is reported as “bispecific”.
With “FRVDEEFQSPFASQSRGFWLFRP-(Harg)-N-CONH2 (FRVDEEFQSPFASQSRGFWLFRP[hArg]N-NH2; N-terminus assumed; SMILES CC(C)C[C@H](NC(=O)[C@H](Cc1c[nH]c2ccccc12)NC(=O)[C@H](Cc1ccccc1)NC(=O)CNC(=O)[C@H](CCCNC(=N)N)NC(=O)[C@H](CO)NC(=O)[C@H](CCC(N)=O)NC(=O)[C@H](CO)NC(=O)[C@H](C)NC(=O)[C@H](Cc1ccccc1)NC(=O)[C@@H]1CCCN1C(=O)[C@H](CO)NC(=O)[C@H](CCC(N)=O)NC(=O)[C@H](Cc1ccccc1)NC(=O)[C@H](CCC(=O)O)NC(=O)[C@H](CCC(=O)O)NC(=O)[C@H](CC(=O)O)NC(=O)[C@@H](NC(=O)[C@H](CCCNC(=N)N)NC(=O)[C@@H](N)Cc1ccccc1)C(C)C)C(=O)N[C@@H](Cc1ccccc1)C(=O)N[C@@H](CCCNC(=N)N)C(=O)N1CCC[C@H]1C(=O)N[C@@H](CCCCNC(=N)N)C(=O)N[C@@H](CC(N)=O)C(N)=O)” the “receptor specificity (NMUR1 / NMUR2)” value (NMUR1 or NMUR2 receptors) was “bispecific”.
For “rat NMU-23: full length NMU, a 23-mer (NMU-23) in rats and mice (YKVNEYQGPVAPSGGFFLFRPRN; ends and bridges not checked; UniProt P12760 144-166, looked up) [reference compound]”, the “body weight, body composition, body temperature and food intake” value (mice; chronic central administration, Nmur2-/- transgenic mice) is given as “largely unaffected” and the “body weight, body composition and food intake” value (mice; chronic peripheral administration, Nmur1-/- transgenic mice) is given as “largely unaffected”.
With FALFRPRN-CONH2 (FALFRPRN-NH2) the “receptor specificity (NMUR1 / NMUR2)” value (NMUR1 or NMUR2 receptors) was “bispecific”.
With “Ac-C2FRVDEEFQSPFASQSRGYFLFRPRN-CONH2 (Ac-C((PEG)2 40 kDa)FRVDEEFQSPFASQSRGYFLFRPRN-NH2; also: PEG size not given here) [NMU12, PEGylated NMU analog; differs from NMU9 by the source of the PEG]” the “total GLP-1 levels” value ([1]; 18-hours post dose, absence of food (FIG. 5B)) was “increased”, the “total GLP-1 levels” value ([1]; 18-hours post dose, presence of food (FIG. 5A)) was “increased” and the plasma glucose levels (plasma glucose levels; 0.1 mpk) was “reduced”. The plasma glucose levels (plasma glucose levels; 1 mpk) was “reduced”, the glucagon levels ([2]; 0.1 mpk) was “reduced” and the glucagon levels ([2]; 1 mpk) was “reduced”. For the same substance, the food intake (Nmur1 knockout mice; Nmur1 knockout mice) was “reduce food intake”, the weight gain (Nmur1 knockout mice; Nmur1 knockout mice) was “reduce weight gain” and the “crossing the blood-brain barrier” value (Nmur1 knockout mice; inferred from effect in Nmur1 knockout mice) was “able to cross the blood-brain barrier”. For the same substance, the PYY levels (PYY levels in plasma; 10 mpk, 18-hr post dose, absence of food (FIG. 4B)) was “did not increase” and the “PYY levels in plasma” value (PYY levels in plasma; 18-hours post dose, presence of food, obese mice (FIG. 4A)) was “dose-dependently increased”.
